Measurements reported in patent US20040014689A1, “Endoparaciticidal and ectoparasiticidal agents” (priority 1996, published 2004).

Key:
Heterakis spumosa = experiment: Example D: in vivo nematode test, Heterakis spumosa in mice; settings: oral
Method: Heterakis spumosa in Mice
Mice were experimentally infected with nematodes of the species Heterakis spumosa. Specifically, the mice were administered Heterakis spumosa orally as 90 embryonate eggs.
After the prepatency period had expired, the suspended active compounds of Example 2 were administered orally on day 46 after the infection.
(§1) Determination of the Activity:
The mice are selected on day 54 after the infection. The adult parasites are counted in the colon and caecum using a microscope. The success of treatment in the dose group is compared to the untreated control group.

Nematospiroides dubius = experiment: Use Example C: in vivo nematode test, Nematospiroides dubius in mice; settings: oral
Method: Nematospiroides dubius in Mice
Mice were experimentally infected with nematodes of the species Nematospiroides dubius. Specifically, the mice were administered Nematospiroides dubius orally as 60 filariform larvae.
After the prepatency period had expired, the suspended active compounds of Example 2 were administered orally on day 12 after the infection.
as §1
The mice are selected on day 20 after the infection. The adult parasites in the Duodenum are counted by means of a compressorium. The success of treatment in the dose group is compared to the untreated control group.

[1] = ivermectin B1a/B1b 0.1 mg/kg alone

Row | Compound | Reduction rate [%] (Heterakis spumosa; imidacloprid 5.0 mg/kg alone) | Reduction rate [%] (Heterakis spumosa; imidacloprid 10.0 mg/kg alone) | Reduction rate [%] (Heterakis spumosa; imidacloprid 25.0 mg/kg alone) | Reduction rate [%] (Heterakis spumosa; imidacloprid 50.0 mg/kg alone) | Reduction rate [%] (Nematospiroides dubius; imidacloprid 25.0 mg/kg alone) | Reduction rate [%] (Nematospiroides dubius; imidacloprid 50.0 mg/kg alone) | Reduction rate [%] (Heterakis spumosa; [1]) | Reduction rate [%] (Nematospiroides dubius; [1])
1 | O=[N+]([O-])NC1=NCCN1Cc1ccc(Cl)nc1 [Imidacloprid, 1-[(6-chloro-3-pyridinyl)methyl]-N-nitro-2-imidazolidinium] | 0 | 0 | 0 | 0 | 0 | 0 |  | 
2 | 22,23-Dihydroavermectin B1a/B1b [Ivermectin B1a/B1b] |  |  |  |  |  |  | <50 | 0
